Data on 1 molecule can be found in ChEMBL document CHEMBL1158885, “A new sesquiterpenoid quinone and other related compounds from the Okinawan marine sponge Dactylospongia elegans” (J Nat Prod, 2003).

The subject of this experiment is HeLa. In words: Cytotoxicity against human HeLa cells. The class given is functional, cell-based.

Regarding `C=C1CCC[C@H]2[C@]3(C)OC4=C(C[C@]3(C)CC[C@]12C)C(=O)C(OC)=CC4=O` [NEODACTYLOQUINONE], the IC50 (usually the midpoint of a concentration-inhibition curve) was 86 µM.
